Results as given in patent publication US20140378395A1, “Peptides for the Treatment of Hearing” (13Therapeutics, Inc., priority 2011, published 2014).
Non-standard residues stand in square brackets, D forms with d. No end group written: not given here.

Tests used:
BALB/c mice [1] = assay: Ototoxicity of topical administration in normal mice, ABR; type: in vivo, mouse; conditions: 1, 10, 10 (twice) or 60 μg/30 μL topically; ABR 1-4 weeks
Procedure: P13 (SEQ ID NO: 369) was investigated for possible negative impact on hearing in normal mice upon administration by ear drops. BALB/c mice, 16 weeks of age, (n=16) received two baseline auditory brainstem response (ABR) tests one week apart, and an otoscopic exam in both ears. ABR stimuli consisted of 20 tone-burst trains at 4 kHz, 8 kHz, 16 kHz and 32 kHz at five intensity levels in 10 dB steps, as previously described. An otoscopic exam was performed using an operating microscope to establish the clinical symptoms of AOM, as previously described. Any animal with an abnormal ABR or exam on pre-screen was not entered into the study.
All 16 animals remained in the study and were divided into five groups as follows:
group 1: (n=6 ears) 1 μg P13 (SEQ ID NO: 369)/30 μl, topically, given once;
group 2: (n=7 ears) 10 μg P13 (SEQ ID NO: 369)/30 μL, topically, given once;
group 3: (n=7 ears) 10 μg P13 (SEQ ID NO: 369)/30 μL, topically, given twice, 24 hours apart;
group 4: (n=6 ears) 60 μg P13 (SEQ ID NO: 369)/30 μL, topically, given once; and
ABRs were performed at one, two, three and four weeks post P13 (SEQ ID NO: 369) treatment. The two baseline ABRs were averaged and compared to the ABRs post P13 (SEQ ID NO: 369) treatment.

BALB/c mice [2] = assay: Effects of peptide on middle ear without added bacteria; type: in vivo, mouse; conditions: 10 μM, no bacteria, 3 days; p=0.104, 0.880, 0.891
Procedure: BALB/c (Bagg albino) mice, about 8-12 weeks of age, are anesthetized with a subcutaneous injection of xylazine & ketamine (about 0.1 mg/30 gm body weight) and their ears examined under the operating microscope to assure they are free of infection or perforation. One group of animals is injected with PBS (Phospho-buffered saline) in one ear and with about 10 μM of a peptide of Table 1 in the opposite ear, to determine the effect of peptide without added bacteria. A second group of animals receive about 5.0 μl of PBS plus heat-inactivated S. pneumoniae (about 10^9 CFU/ml) in one ear and about 5.0 μl of peptide (about 10 μM) plus heat-inactivated S. pneumoniae (about 10^9 CFU/ml) in the opposite ear. […] Inflammation is quantified by measuring 1) area of fluid present in the middle ear; 2) number of cells in middle ear fluid; and 3) thickness of the tympanic membrane (TM) taken at a point away from the injection site. Data are obtained from mice (n=18) injected with PBS alone for each of the histological parameters measured, to serve as a control group.
Five mice were injected in one ear with PBS and in the opposite ear with 10 μM peptide P13 (SEQ ID NO: 369). Three days later the animals were killed, and the middle ears embedded, sectioned, stained and evaluated for fluid area, infiltrating cell number, and thickness of the tympanic membrane. […]

BALB/c mice [3] = assay: Assay for crossing the tympanic membrane by FITC-labeled peptide; type: in vivo, mouse; conditions: 10 μg/30 μl dropped on ear, 10 minutes; AOM ears; fluorescent microscopy
Procedure: Three BALB/c mice at 8-12 weeks of age were anesthetized with ketamine (100 mg/kg) and xylazine (20 mg/kg) prior to administration of bacteria. A ventral midline incision was made in the neck, and the bulla exposed after blunt dissection. The middle ear was inoculated through the bony wall with approximately 3.5 μL of a bacterial suspension (heat inactivated S. pneumoniae 10^10 CFU/ml) with a thin needle. Both the right and left ears received bacteria by bulla injection.
After 24 hours, animals received an otoscopic exam using an operating microscope. Mice were anesthetized as described above, and the tympanic membrane was inspected for the presence or absence of the following three criteria for acute otitis media (AOM): 1) middle ear effusion behind the tympanic membrane; 2) change in color of the tympanic membrane from clear to red or white (indicating inflammation and/or purulence in the middle ear); and 3) change in position of the tympanic membrane from neutral to bulging or retracted.
Four ears met the criteria for AOM. FITC labeled peptide P13-R^9 (SEQ ID NO: 378) (10 μg/30 μl) was dropped onto the middle ear. The peptide was allowed to absorb for 10 minutes. After 10 minutes, the external ear canal was flushed twice, and blotted to get rid of any remaining peptide. […]

C3H/HeJ mice = assay: Topical treatment in chronic otitis media (COM) model, ABR; type: in vivo, mouse
BALB/c mice [4] = assay: Middle ear inflammation: heat-inactivated S. pneumoniae plus peptide injected into the middle ear, histology after 3 days; type: in vivo, mouse; conditions: single dose with heat-inactivated S. pneumoniae; paired t-tests
[5] = system: toll-like receptor-dependent signaling; assay: Cytokine secretion / signaling in response to TLR activation in vitro; type: cell-based
Procedure: (§1) RAW264.7 cells were plated at 1.5×10^5 cells/well-3×10^5 cells/well in 48-well plates. After 24 hours, the cells were incubated with peptides at various concentrations at room temperature in triplicate either before, simultaneous with, or after activation with various PAMPs for 18 hours. Cell-free supernatants were analyzed for cytokines by ELISA, in quadruplicate. RAW264.7 cells were stimulated with either CpG-ODN (1 μg/ml or 1.25 μg/ml), LPS (about 1 ng/ml), Poly (I:C) (about 10 μg/ml), flagellin (about 5 ng/ml), or zymosan (about 10 μg/ml). Dose response curves were done with each PAMP to determine optimal stimulation concentration. For CpG-ODN stimulation, cells were incubated for 4 hours at 37° C., supernatants collected, and TNF-α measured by ELISA. Any cytokine involved in inflammatory disease mediated toll receptor signaling can be measured using similar assays.

[6] = system: TNF-α secretion from RAW264.7 cells; assay: Inhibition of LPS-induced TNF-α secretion from RAW264.7 cells (ELISA); type: cell-based, murine; conditions: 1 ng/ml LPS, 4 hours
Procedure: as §1
(§2) Inhibition of TNF-α secretion by various T-peptides was examined. RAW264.7 cells were plated at 3×10^5 cells/well in 48-well plates. After 24 h the cells were incubated with peptide at various concentrations at room temperature in triplicate for 15 minutes and then stimulated with 1.25 ug/ml CpG-ODN or 1 ng/ml LPS. Cells were then incubated for 4 hours at 37° C., supernatants collected, and TNF-α measured by ELISA. Percent inhibition was calculated by comparing TNF-α secretion from cells incubated with peptide to control cells with no peptide treatment. The inhibitive effects of peptides T3 (SEQ ID NO: 319), T11 (SEQ ID NO: 327), T21 (SEQ ID NO: 337), T36 (SEQ ID NO: 352), T37 (SEQ ID NO: 353), T51 (SEQ ID NO: 367), and T52 (SEQ ID NO: 368) were compared to inhibition by an analogue of P13 (SEQ ID NO: 369) having a sequence of nine arginine residues at the C-terminus (P13-R^9 (SEQ ID NO: 378)). (Table 4).

BALB/c mice [7] = assay: LPS-induced septic shock model, pro-inflammatory mediators; type: in vivo; conditions: mouse model
Procedure: BALB/c mice are injected i.p. with PBS, LPS at about 100 μg/mouse/250 μl, or about 100 μg LPS plus various doses of peptides. Serum is collected at about 2 and about 6 hours after treatment and evaluated for the pro-inflammatory cytokines MIP-2 and TNF-α by ELISA, and for soluble ICAM-1.

[8] = system: TNF-α secretion from RAW264.7 cells; assay: Inhibition of CpG-ODN-induced TNF-α secretion from RAW264.7 cells (ELISA); type: cell-based, murine; conditions: for Percent Inhibition of TNF-α secretion, CpG Stimulation / Inhibition of TNF-α secretion (percent inhibition) / Percent Inhibition of TNF-α secretion: RAW264.7, 4 hours; for Percent Inhibition of TNF-α secretion, CpG Stimulation: 1.25 ug/ml CpG-ODN; for activity compared with P13 (inhibition of TNF-α after stimulation of RAW264.7 cells with CpG): SAR, versus P13; for Inhibition of TNF-α secretion (percent inhibition) / Percent Inhibition of TNF-α secretion: 1 μg/ml CpG-ODN
Procedure: as §1
The effect of several peptides on TNF-α secretion from RAW264.7 cells in response to stimulation by CpG-ODN was studied. Each peptide was initially tested at 3 concentrations, 37 μM, 22.2 μM, and 11.1 μM. […] The peptides were then tested at 11.1 μM, 7.4 μM, and 3.7 μM (Table 3). […] Cell viability was examined for each peptide at the concentrations tested for TNF-α inhibition.
as §2

[9] = system: TNF-α secretion from RAW264.7 cells; assay: as above; type: cell-based, murine; conditions: peptide 3.1 μM (Table 3), 1 μg/ml CpG-ODN, 4 hours

Substance: DIVKLTVYDCI [Peptide P13, DIVKLTVYDCI]
- impact on hearing thresholds in normal mice (ototoxicity) (BALB/c mice [1]): did not negatively impact hearing thresholds
- differences between PBS-injected ear and P13-injected ear in fluid area, cell number, tympanic membrane thickness (BALB/c mice [2]): no differences

Substance: FITC-labeled P13-R^9: FITC (Fluorescein isothiocyanate) labeled peptide P13-R^9 (SEQ ID NO: 378) (DIVKLTVYDCIRRRRRRRRR; also: FITC label, position not given here)
- crossing of the tympanic membrane and association with cells in middle ear fluid (BALB/c mice [3]): crosses the tympanic membrane

Substance: D-Asp-D-Ile-D-Val-D-Lys-D-Leu-D-Thr-D-Val-D-Tyr-D-Asp-D-Cys-D-Ile ([dD][dI][dV][dK][dL][dT][dV][dY][dD][dC][dI]) [D-P13, stereoisomer of P13 containing all D-amino acid residues]
- improvement of hearing thresholds across all frequencies (C3H/HeJ mice; week 2 post-treatment): approximately 20 db
- hearing thresholds by ABR across all four frequencies (C3H/HeJ mice; weeks 1 and 2 post-treatment): demonstrated efficacy

Substance: DIVKLTVYDCIRRRRRRRRR [P13-R^9]
- bacterial-induced middle ear inflammation (amount of fluid, infiltrating cell number, thickness of the tympanic membrane) (BALB/c mice [4]): dramatically reduced
- cytokine secretion from cell activation initiated independent of TLR stimulation [5]: no effect
- cytokine secretion in response to TLR activation ([5]; TLR ligands individually or in combination): effectively inhibited
- Percent Inhibition of TNF-α secretion, LPS Stimulation ([6]; peptide 7.4 uM): 0%
- Percent Inhibition of TNF-α secretion, LPS Stimulation ([6]; peptide 11.1 uM): 13%
- Percent Inhibition of TNF-α secretion, LPS Stimulation ([6]; peptide 22.2 uM): 69%
- pro-inflammatory mediators in LPS-induced septic shock (BALB/c mice [7]): reduce pro-inflammatory mediators
- Percent Inhibition of TNF-α secretion, CpG Stimulation ([8]; peptide 7.1 μM): 32%
- Percent Inhibition of TNF-α secretion, CpG Stimulation ([8]; peptide 11.1 μM): 65%
- Percent Inhibition of TNF-α secretion, CpG Stimulation ([8]; peptide 22 μM): 86%

Substance: DIVKLTVYACIRRRRRRRRR [T11-R^9]
- Percent Inhibition of TNF-α secretion, LPS Stimulation ([6]; peptide 7.4 uM): 68%
- Percent Inhibition of TNF-α secretion, LPS Stimulation ([6]; peptide 11.1 uM): 81%
- Percent Inhibition of TNF-α secretion, LPS Stimulation ([6]; peptide 22.2 uM): 91%
- activity compared with P13 (inhibition of TNF-α after stimulation of RAW264.7 cells with CpG) [8]: superior activity

Substance: EMFTILEEYFMYRGLLRRRRRRRRR (C-terminal nona-arginine (R9)) [79(S14)-R^9]
- Inhibition of TNF-α secretion (percent inhibition) [9]: 0%
- Inhibition of TNF-α secretion (percent inhibition) ([8]; peptide 7 μM (Table 3)): 77%
- Inhibition of TNF-α secretion (percent inhibition) ([8]; peptide 11 μM (Table 3)): 86%
- Percent Inhibition of TNF-α secretion ([8]; peptide 11.1 μM): 85%
- Percent Inhibition of TNF-α secretion ([8]; peptide 22.2 μM): 93%
- Percent Inhibition of TNF-α secretion ([8]; peptide 37 μM): 97%

Substance: EMFTILEEYFMYRGLLGLRIRRRRRRRRR (C-terminal nona-arginine (R9)) [75(S11)-R^9]
- Inhibition of TNF-α secretion (percent inhibition) [9]: 31%
- Inhibition of TNF-α secretion (percent inhibition) ([8]; peptide 7 μM (Table 3)): 84%
- Inhibition of TNF-α secretion (percent inhibition) ([8]; peptide 11 μM (Table 3)): 93%
- Percent Inhibition of TNF-α secretion ([8]; peptide 11.1 μM): 92%
- Percent Inhibition of TNF-α secretion ([8]; peptide 22.2 μM): 97%
- Percent Inhibition of TNF-α secretion ([8]; peptide 37 μM): 98%

Substance: MFTILEEYFMYRGLLGLRIKYGRLFNEIRRRRRRRRR (C-terminal nona-arginine (R9)) [43(S2)-R^9]
- Inhibition of TNF-α secretion (percent inhibition) [9]: 0%
- Inhibition of TNF-α secretion (percent inhibition) ([8]; peptide 7 μM (Table 3)): 51%
- Inhibition of TNF-α secretion (percent inhibition) ([8]; peptide 11 μM (Table 3)): 70%
- Percent Inhibition of TNF-α secretion ([8]; peptide 11.1 μM): 91%
- Percent Inhibition of TNF-α secretion ([8]; peptide 22.2 μM): 94%
- Percent Inhibition of TNF-α secretion ([8]; peptide 37 μM): 100%

Substance: AIVKLTVYDCIRRRRRRRRR [T3-R^9]
- Percent Inhibition of TNF-α secretion, LPS Stimulation ([6]; peptide 7.4 uM): 33%
- Percent Inhibition of TNF-α secretion, LPS Stimulation ([6]; peptide 11.1 uM): 65%
- Percent Inhibition of TNF-α secretion, LPS Stimulation ([6]; peptide 22.2 uM): 77%
- activity compared with P13 (inhibition of TNF-α after stimulation of RAW264.7 cells with CpG) [8]: superior activity
- Percent Inhibition of TNF-α secretion, CpG Stimulation ([8]; peptide 7.1 μM): 85%
- Percent Inhibition of TNF-α secretion, CpG Stimulation ([8]; peptide 11.1 μM): 92%
- Percent Inhibition of TNF-α secretion, CpG Stimulation ([8]; peptide 22 μM): 99%

Substance: EMFTILEEYFMYRGLLGLRRRRRRRRRR (C-terminal nona-arginine (R9)) [76(S12)-R^9]
- Inhibition of TNF-α secretion (percent inhibition) [9]: 44%
- Inhibition of TNF-α secretion (percent inhibition) ([8]; peptide 7 μM (Table 3)): 67%
- Inhibition of TNF-α secretion (percent inhibition) ([8]; peptide 11 μM (Table 3)): 84%
- Percent Inhibition of TNF-α secretion ([8]; peptide 11.1 μM): 82%
- Percent Inhibition of TNF-α secretion ([8]; peptide 22.2 μM): 84%
- Percent Inhibition of TNF-α secretion ([8]; peptide 37 μM): 87%
